Test system: carrageenin edema
Test: Carrageenin edema inhibition activity (for rats)
Format: in vivo
Conditions: Rattus norvegicus, ip; for inhibition in vivo at 50 mg/kg: 50 mg/kg i.p.; for inhibition in vivo at 100 mg/kg: 100 mg/kg i.p.
From the text: In Table 2 below, carrageenin edema inhibition activity (for rats) of representative compounds of the present invention is illustrated: […]

Nc1nc(NC(=O)c2cccnc2)nc(-c2ccc(Cl)cc2)n1 [Compound 1]
inhibition in vivo at 50 mg/kg: 56.8%
inhibition in vivo at 100 mg/kg: 57.2%

Nc1nc(NC(=O)c2cccnc2)nc(-c2cccc(Cl)c2)n1 [Compound 2]
inhibition in vivo at 50 mg/kg: 43.6%
inhibition in vivo at 100 mg/kg: 54.2%

Nc1nc(NC(=O)c2cccnc2)nc(-c2ccccc2Cl)n1 [Compound 3]
inhibition in vivo at 50 mg/kg: 37.1%
inhibition in vivo at 100 mg/kg: 45.5%

Nc1nc(NC(=O)c2cccnc2)nc(-c2ccc(Br)cc2)n1 [Compound 4]
inhibition in vivo at 50 mg/kg: 44.4%
inhibition in vivo at 100 mg/kg: 49.3%

Nc1nc(NC(=O)c2cccnc2)nc(-c2cccc(Br)c2)n1 [Compound 5]
inhibition in vivo at 50 mg/kg: 41.9%
inhibition in vivo at 100 mg/kg: 40.2%

Nc1nc(NC(=O)c2cccnc2)nc(-c2ccccc2I)n1 [Compound 9]
inhibition in vivo at 50 mg/kg: 38.1%
inhibition in vivo at 100 mg/kg: 40.5%

Nc1nc(NC(=O)c2cccnc2)nc(-c2ccc(F)cc2)n1 [Compound 10]
inhibition in vivo at 50 mg/kg: 53.8%
inhibition in vivo at 100 mg/kg: 56.1%

Nc1nc(NC(=O)c2cccnc2)nc(-c2cccc(F)c2)n1 [Compound 11]
inhibition in vivo at 50 mg/kg: 49%
inhibition in vivo at 100 mg/kg: 47.1%

Nc1nc(NC(=O)c2cccnc2)nc(-c2ccc(Cl)c(Cl)c2)n1 [Compound 13]
inhibition in vivo at 50 mg/kg: 40.9%
inhibition in vivo at 100 mg/kg: 49.2%

Nc1nc(NC(=O)c2cccnc2)nc(-c2cc(Cl)ccc2Cl)n1 [Compound 15]
inhibition in vivo at 50 mg/kg: 43.2%
inhibition in vivo at 100 mg/kg: 54.5%

Nc1nc(NC(=O)c2cccnc2)nc(-c2cc(Cl)ccc2F)n1 [Compound 19]
inhibition in vivo at 50 mg/kg: 34.2%
inhibition in vivo at 100 mg/kg: 47.8%

Nc1nc(NC(=O)c2cccnc2)nc(-c2ccc(Cl)cc2F)n1 [Compound 20]
inhibition in vivo at 50 mg/kg: 42.7%
inhibition in vivo at 100 mg/kg: 50.8%

Nc1nc(NC(=O)c2cccnc2)nc(-c2cc(Br)ccc2Br)n1 [Compound 21]
inhibition in vivo at 50 mg/kg: 35.6%
inhibition in vivo at 100 mg/kg: 40.6%

Nc1nc(NC(=O)c2cccnc2)nc(-c2cc(F)ccc2Cl)n1 [Compound 24]
inhibition in vivo at 50 mg/kg: 46.5%
inhibition in vivo at 100 mg/kg: 45.1%

Nc1nc(NC(=O)c2cccnc2)nc(-c2cc(F)ccc2Br)n1 [Compound 25]
inhibition in vivo at 50 mg/kg: 40.7%
inhibition in vivo at 100 mg/kg: 45.9%

Nc1nc(NC(=O)c2cccnc2)nc(-c2cc(F)ccc2F)n1 [Compound 27]
inhibition in vivo at 50 mg/kg: 51.2%
inhibition in vivo at 100 mg/kg: 53.6%

Nc1nc(NC(=O)c2cccnc2)nc(-c2ccc(Cl)cc2Br)n1 [Compound 28]
inhibition in vivo at 50 mg/kg: 42.8%
inhibition in vivo at 100 mg/kg: 48.4%

Nc1nc(NC(=O)c2cccnc2)nc(-c2cc(Br)ccc2Cl)n1 [Compound 29]
inhibition in vivo at 50 mg/kg: 38.7%
inhibition in vivo at 100 mg/kg: 49.2%

From US4333933A, “Benzoguanamine derivatives, their production and pharmaceutical compositions containing the same” (Nippon Shinyaku Co., Ltd., priority 1980, dated 1982)
